# Test results published in patent US20260317320A1, “C5AR1 ANTAGONISTS AND USES THEREOF” (Vanqua Bio, Inc., priority 2022, published 2026).
# Target: T1, complement C5a receptor 1 (C5aR1) (Homo sapiens, UniProt P21730)
# T1 construct: β-galactosidase fragment (PathHunter enzyme complementation); host or cells: CHO-K1 (PathHunter CHO-K1 C5aR1 β-arrestin cell line)
# T1 sequence (P21730 1-350): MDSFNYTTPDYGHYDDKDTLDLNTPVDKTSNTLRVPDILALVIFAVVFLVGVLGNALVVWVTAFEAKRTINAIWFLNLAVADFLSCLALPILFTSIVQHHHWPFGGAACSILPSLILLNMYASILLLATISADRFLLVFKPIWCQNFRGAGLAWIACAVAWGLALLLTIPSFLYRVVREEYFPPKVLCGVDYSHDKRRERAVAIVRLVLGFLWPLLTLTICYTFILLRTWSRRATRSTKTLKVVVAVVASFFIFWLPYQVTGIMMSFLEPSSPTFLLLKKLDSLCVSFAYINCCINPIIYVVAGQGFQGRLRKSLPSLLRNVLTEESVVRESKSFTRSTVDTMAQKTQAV
# Assay: β-arrestin recruitment via C5aR1 activation in live CHO-K1 cells (PathHunter), antagonist mode
# Format: cell-based
# Conditions: not given; call rule not given here
# Description: (§1) Exemplary compounds were evaluated for classical GPCR β-arrestin recruitment via complement C5a receptor 1 (C5aR1) activation in live CHO-K1 cells. This cell line expresses two fragments of the […] protein coupled to β-arrestin and C5aR1. Complementation of the two fragments allows for the assessment of both C5aR1 agonism and antagonism. Recombinant hC5a (EC90) was used as the competing natural agonist against disclosed compounds (more information on the expanded protocol and cell line can be found on the manufacturer's website: PathHunter® CHO-K1 C5aR1 β-arrestin cell line, DiscoverX, Catalog No. 93-0557C2). […] IC50 ranges: A: IC50≤500 nM; B: 500 nM<IC50≤5 uM; C: 5 uM<IC50≤100 uM; D: IC50>100 uM.
row,IC50,Compound
1,0.5 to 5 µM,"Cc1ccccc1N1CCC(c2cc3nccnc3n(Cc3nccnc3C)c2=O)CC1 [compound 109, 5-((3-Methylpyrazin-2-yl)methyl)-7-(1-(o-tolyl)piperidin-4-yl)pyrido[2,3-b]pyrazin-6(5H)-one]"

# Same assay, conditions: antagonist mode; recombinant hC5a (EC90) as competing natural agonist; live CHO-K1 cells; read-out: [Antagonist] B-arrestin2 recruitment: Average IC50
row,Compound,IC50
1,"Cc1cccc(F)c1N1CCC(c2cc3nccnc3n([C@@H]3CCCc4cccnc43)c2=O)CC1 [40a, (R)-7-(1-(2-Fluoro-6-methylphenyl)piperidin-4-yl)-5-(5,6,7,8-tetrahydroquinolin-8-yl)pyrido[2,3-b]pyrazin-6(5H)-one]",5 to 100 µM
2,"Cc1cccc(F)c1N1CCC(c2cc3nccnc3n([C@H]3CCCc4cccnc43)c2=O)CC1 [40b, (S)-7-(1-(2-Fluoro-6-methylphenyl)piperidin-4-yl)-5-(5,6,7,8-tetrahydroquinolin-8-yl)pyrido[2,3-b]pyrazin-6(5H)-one]",> 100 µM
3,"Cc1nccnc1Cn1c(=O)c(C2CCN(c3ccccc3OC(F)F)CC2)cc2nccnc21 [compound 111, 7-(1-(2-(Difluoromethoxy)phenyl)piperidin-4-yl)-5-((3-methylpyrazin-2-yl)methyl)pyrido[2,3-b]pyrazin-6(5H)-one]",5 to 100 µM
4,"COc1cnc2cc(C3CCN(c4c(C)cccc4F)CC3)c(=O)n(Cc3nccnc3C)c2n1 [compound 112, 7-(1-(2-Fluoro-6-methylphenyl)piperidin-4-yl)-3-methoxy-5-((3-methylpyrazin-2-yl)methyl)pyrido[2,3-b]pyrazin-6(5H)-one]",5 to 100 µM
5,"Cc1cnc2cc(C3CCN(c4ccnnc4C)CC3)c(=O)n(Cc3ncccc3C(F)(F)F)c2n1 [compound 113, 3-Methyl-7-(1-(3-methylpyridazin-4-yl)piperidin-4-yl)-5-((3-(trifluoromethyl)pyridin-2-yl)methyl)pyrido[2,3-b]pyrazin-6(5H)-one]",> 100 µM
6,"Cc1cnc2cc(C3CCN(c4cncnc4C)CC3)c(=O)n(Cc3ncccc3C(F)(F)F)c2n1 [compound 114, 3-Methyl-7-(1-(4-methylpyrimidin-5-yl)piperidin-4-yl)-5-((3-(trifluoromethyl)pyridin-2-yl)methyl)pyrido[2,3-b]pyrazin-6(5H)-one]",5 to 100 µM

# Continued, values first:
row,IC50,Compound
1,0.5 to 5 µM,"Cc1cnc2cc(N3CCC(c4c(C)cccc4F)CC3)c(=O)n(Cc3ncccc3C(F)(F)F)c2n1 [compound 101, 7-(4-(2-Fluoro-6-methylphenyl)piperidin-1-yl)-3-methyl-5-((3-(trifluoromethyl)pyridin-2-yl)methyl)pyrido[2,3-b]pyrazin-6(5H)-one]"
2,< 0.5 µM,"Cc1ncc2cc(C3CCN(c4c(C)cccc4F)CC3)c(=O)n(Cc3ncccc3OC(F)(F)F)c2n1 [compound 102, 6-(1-(2-Fluoro-6-methylphenyl)piperidin-4-yl)-2-methyl-8-((3-(trifluoromethoxy)pyridin-2-yl)methyl)pyrido[2,3-d]pyrimidin-7(8H)-one]"
3,0.5 to 5 µM,"Cc1cnc2c(C)c(C3CCN(c4c(C)cccc4F)CC3)c(=O)n(Cc3nccnc3C)c2n1 [compound 103, 7-(1-(2-Fluoro-6-methylphenyl)piperidin-4-yl)-3,8-dimethyl-5-((3-methylpyrazin-2-yl)methyl)pyrido[2,3-b]pyrazin-6(5H)-one]"
4,0.5 to 5 µM,"Cc1cnc2cc(N3CCN(c4c(C)cccc4F)CC3)c(=O)n(Cc3nccnc3C)c2n1 [compound 104, 7-(4-(2-Fluoro-6-methylphenyl)piperazin-1-yl)-3-methyl-5-((3-methylpyrazin-2-yl)methyl)pyrido[2,3-b]pyrazin-6(5H)-one]"
5,< 0.5 µM,"Cc1ncc2cc(C3CCN(c4c(C)cccc4F)CC3)c(=O)n(Cc3ncccc3OC(F)F)c2n1 [compound 105, 8-((3-(Difluoromethoxy)pyridin-2-yl)methyl)-6-(1-(2-fluoro-6-methylphenyl)piperidin-4-yl)-2-methylpyrido[2,3-d]pyrimidin-7(8H)-one]"
6,< 0.5 µM,"Cc1cnc2cc(C3CCN(c4c(C)cccc4F)CC3)c(=O)n(Cc3nccnc3C)c2n1 [compound 106, 7-(1-(2-Fluoro-6-methylphenyl)piperidin-4-yl)-3-methyl-5-((3-methylpyrazin-2-yl)methyl)pyrido[2,3-b]pyrazin-6(5H)-one]"
7,0.5 to 5 µM,"Cc1ncc2cc(C3CCN(c4c(C)cccc4F)CC3)c(=O)n(Cc3nccnc3C)c2n1 [compound 107, 6-(1-(2-Fluoro-6-methylphenyl)piperidin-4-yl)-2-methyl-8-((3-methylpyrazin-2-yl)methyl)pyrido[2,3-d]pyrimidin-7(8H)-one]"
8,0.5 to 5 µM,"Cc1nccnc1Cn1c(=O)c(C2CCN(c3ccccc3OC(F)(F)F)CC2)cc2nccnc21 [compound 108, 5-((3-Methylpyrazin-2-yl)methyl)-7-(1-(2-(trifluoromethoxy)phenyl)piperidin-4-yl)pyrido[2,3-b]pyrazin-6(5H)-one]"
9,< 0.5 µM,"Cc1ncc2cc(N3CCN(c4c(C)cccc4F)CC3)c(=O)n(Cc3ncccc3OC(F)(F)F)c2n1 [compound 110, 6-(4-(2-Fluoro-6-methylphenyl)piperazin-1-yl)-2-methyl-8-((3-(trifluoromethoxy)pyridin-2-yl)methyl)pyrido[2,3-d]pyrimidin-7(8H)-one]"
10,0.5 to 5 µM,"Cc1cnc2cc(C3CCN(c4nnccc4C)CC3)c(=O)n(Cc3ncccc3C(F)(F)F)c2n1 [compound 115, 3-Methyl-7-(1-(4-methylpyridazin-3-yl)piperidin-4-yl)-5-((3-(trifluoromethyl)pyridin-2-yl)methyl)pyrido[2,3-b]pyrazin-6(5H)-one]"
11,0.5 to 5 µM,"Cc1cccc(F)c1N1CCC(c2cc3nccnc3n(Cc3cncnc3C(F)(F)F)c2=O)CC1 [compound 116, 7-(1-(2-Fluoro-6-methylphenyl)piperidin-4-yl)-5-((4-(trifluoromethyl)pyrimidin-5-yl)methyl)pyrido[2,3-b]pyrazin-6(5H)-one]"
12,0.5 to 5 µM,"Cc1ncc2cc(N3CCN(c4c(C)cccc4F)CC3)c(=O)n(Cc3ncccc3OC(F)F)c2n1 [compound 117, 8-((3-(Difluoromethoxy)pyridin-2-yl)methyl)-6-(4-(2-fluoro-6-methylphenyl)piperazin-1-yl)-2-methylpyrido[2,3-d]pyrimidin-7(8H)-one]"
13,0.5 to 5 µM,"Cc1ncc2cc(N3CCN(c4c(C)cccc4F)CC3)c(=O)n(Cc3ncccc3C(F)(F)F)c2n1 [compound 119, 6-(4-(2-Fluoro-6-methylphenyl)piperazin-1-yl)-2-methyl-8-((3-(trifluoromethyl)pyridin-2-yl)methyl)pyrido[2,3-d]pyrimidin-7(8H)-one]"
14,< 0.5 µM,"Cc1cccc(F)c1N1CCC(c2cc3nccnc3n(Cc3nccnc3C(F)F)c2=O)CC1 [compound 122, 5-((3-(Difluoromethyl)pyrazin-2-yl)methyl)-7-(1-(2-fluoro-6-methylphenyl)piperidin-4-yl)pyrido[2,3-b]pyrazin-6(5H)-one]"

# Target: T1, complement C5a receptor 1 (C5aR1)
# Assay: β-arrestin recruitment via C5aR1 activation in live CHO-K1 cells (PathHunter), agonist mode
# Format: cell-based
# Conditions: not given
# Description: as §1
row,[Agonist] B-arrestin2 recruitment: Average EC50 (nM),Compound
1,Non-Active,"Cc1cccc(F)c1N1CCC(c2cc3nccnc3n([C@@H]3CCCc4cccnc43)c2=O)CC1 [40a, (R)-7-(1-(2-Fluoro-6-methylphenyl)piperidin-4-yl)-5-(5,6,7,8-tetrahydroquinolin-8-yl)pyrido[2,3-b]pyrazin-6(5H)-one]"
2,Non-Active,"Cc1cccc(F)c1N1CCC(c2cc3nccnc3n([C@H]3CCCc4cccnc43)c2=O)CC1 [40b, (S)-7-(1-(2-Fluoro-6-methylphenyl)piperidin-4-yl)-5-(5,6,7,8-tetrahydroquinolin-8-yl)pyrido[2,3-b]pyrazin-6(5H)-one]"
3,Non-Active,"Cc1ccc2c(c1)nc(C1CCN(c3c(C)cccc3F)CC1)c(=O)n2Cc1ncccc1C(F)(F)F [142B, 3-(1-(2-Fluoro-6-methylphenyl)piperidin-4-yl)-6-methyl-1-((3-(trifluoromethyl)pyridin-2-yl)methyl)quinoxalin-2(1H)-one]"
4,Non-Active,"Cc1ccc2cc([C@H]3CC[C@H](c4c(C)cccc4F)CC3)c(=O)n(Cc3nccnc3C(C)(F)F)c2n1 [compound 269, 1-{[3-(1,1-Difluoroethyl)-2-pyrazinyl]methyl}-7-methyl-3-[(1r,4r)-4-(2-fluoro-6-tolyl)cyclohexyl]-1,8-diaza-2(1H)-naphthalenone]"

# Same assay, conditions: at 10 μM
row,[Agonist] B-arrestin2 recruitment: Average EC50 (nM),Compound
1,Non-Active at 10 μM,"Cc1cccc(F)c1[C@@H]1CC[C@H](c2cc3nccnc3n(Cc3ncccc3C(F)(F)F)c2=O)C1 [200A, 7-((1S,3R)-3-(2-Fluoro-6-methylphenyl)cyclopentyl)-5-((3-(trifluoromethyl)pyridin-2-yl)methyl)pyrido[2,3-b]pyrazin-6(5H)-one]"
2,Non-Active at 10 μM,"Cc1cccc(F)c1[C@H]1CC[C@H](c2cc3nccnc3n(Cc3ncccc3C(F)(F)F)c2=O)C1 [200B, 7-((1S,3S)-3-(2-Fluoro-6-methylphenyl)cyclopentyl)-5-((3-(trifluoromethyl)pyridin-2-yl)methyl)pyrido[2,3-b]pyrazin-6(5H)-one]"
3,Non-Active at 10 μM,"Cc1cnc2cc([C@H]3CC[C@H](c4c(C)ccc5c4cnn5C)CC3)c(=O)n(Cc3ncccc3C(F)(F)F)c2n1 [compound 218, 7-((1r,4r)-4-(1,5-Dimethyl-1H-indazol-4-yl)cyclohexyl)-3-methyl-5-((3-(trifluoromethyl)pyridin-2-yl)methyl)pyrido[2,3-b]pyrazin-6(5H)-one]"
